Results taken from patent US20260272967A1, “TRADITIONAL CHINESE MEDICINE COMPOSITION FOR TREATING LUNG INFLAMMATION RELATED DISEASES AND ITS USES” (XIYUAN HOSPITAL, CHINA ACADEMY OF CHINESE MEDICAL SCIENCES, priority 2023, published 2026).
Like-named read-outs stand apart in the source and are kept apart here.

Key:
[1] = system: LPS-induced RAW264.7 cells; assay: Inhibition of NO release in LPS-induced RAW264.7 cells, with Chou-Talalay synergy analysis (Experimental Example 1); assay type: cell-based, mouse; conditions: for NO Production Rate: LPS 50 ng/mL 24 h, LPS without drug = 100%; for IC50: read-out: IC50 (concentration at which NO production is 50%), LPS-induced RAW264.7 cells, NO release
Protocol: RAW264.7 cells were seeded in a 96-well cell culture plate at 1×10^6/mL and cultured for 24 h. […] The cells were pretreated with the serially diluted drug solutions for 2 h, and then treated with LPS (50 ng/mL) for 24 h. The cell supernatant was aspirated, the NO release level in the supernatant was determined, and the IC50 values of the four groups of drugs inhibiting NO release were calculated. The dose-effect relationships of the three single components and the three-component composition were imported into CalcuSyn software 2.0 (Biosoft, USA), and the inhibition rate-combination index plot (Fa-CI) was generated using the Chou-Talalay mathematical model. The Fa-CI plot can reflect the relationship between the CI value and the effective level of a certain biological index (i.e., the inhibitory effect on NO). The intensity and nature of the interaction between drugs can be quantitatively judged by the value of CI: CI>1 indicates antagonism, CI=1 indicates additive effect, and CI<1 indicates synergism.

RAW264.7 cells = conditions: reported by NICM Health Research Institute; cited from earlier work
ALI mice induced by LPS [2] = assay: Mouse acute lung injury model: lung index, W/D, BALF leukocytes and protein (Experimental Example 5); assay type: in vivo; conditions: three-component 398 mg/kg intragastric, dexamethasone 5 mg/kg i.p.
Protocol: (§1) Establishment of mouse acute lung injury model: Mice were anesthetized with isoflurane, and LPS (1 mg/kg) was instilled into one side of the nasal cavity. After instillation, the mice were stood upright quickly, and returned to the original feeding cage after waking up to complete modeling.
(§2) All drugs were administered 0.5 h after establishing the mouse ALI model with LPS.
24 h after model establishment, mice were anesthetized with pentobarbital sodium and sacrificed by abdominal aorta bloodletting. Lung tissues were dissected and weighed, and the lung coefficient (lung tissue weight/mouse body weight) was calculated; the right upper lobe of the mouse lung was fixed in formalin, and pathological sections were made and stained with HE to observe pathological changes; the middle and lower lobes of the right lung of the mouse were weighed (wet weight), placed in a 60° C. oven to dry to constant weight, and weighed (dry weight), and the wet-to-dry weight ratio (wet weight/dry weight, W/D) was calculated. The right bronchus of the mouse was ligated, the left lobe of the lung was taken, and bronchoalveolar lavage fluid (BALF) was recovered after lavage with 0.8 mL PBS for three times. The total number of leukocytes and total protein concentration were determined using an automatic cell counter.

ALI mice induced by LPS [3] = assay: Mouse acute lung injury model: BALF inflammatory factors and lung pathology (Experimental Example 6); assay type: in vivo; conditions: three-component 398 mg/kg intragastric, dexamethasone 5 mg/kg i.p.
Protocol: as §1, §2
The levels of inflammatory factors IL-1B, IL-6 and TNF-α in BALF were determined in strict accordance with the instructions of the inflammatory factor detection kit.
The right upper lobe of the mouse lung was fixed with tissue fixative for 72 hours, and HE-stained sections were prepared by paraffin embedding, sectioning, dehydration and staining. Lung tissue lesions were observed under a microscope.

SMILES | NO Production Rate ([1]; 0.86 μM) [%] | NO Production Rate ([1]; 12.5 μM) [%] | NO Production Rate ([1]; 25 μM) [%] | NO Production Rate ([1]; 50 μM) [%] | NO Production Rate ([1]; 100 μM) [%] | IC50 ([1]; Mus musculus) [µM] | inhibiting LPS-induced NO release from RAW264.7 cells (RAW264.7 cells) | NO Production Rate ([1]; 1.63 μM) [%] | NO Production Rate ([1]; 3.125 μM) [%] | NO Production Rate ([1]; 6.25 μM) [%] | other results
O=c1cc(-c2ccccc2)oc2cc(O)c(O)c(O)c12 [Baicalein, baicalein] | 90.14 ± 7.64 | 60.52 ± 5.14 | 40.47 ± 6.87 | 7.77 ± 3.47 | 2.44 ± 2.33 | 11.3 ± 1.32 | a certain effect |  |  |  | 
O=c1cc(-c2ccc(O)c(O)c2)oc2cc(O)cc(O)c12 [luteolin] |  |  |  |  |  |  | a certain effect |  |  |  | 
C=C1CC[C@@H]2[C@](C)(CO)[C@H](O)CC[C@@]2(C)[C@@H]1C/C=C1/C(=O)OC[C@H]1O [andrographolide] |  |  |  |  |  |  | a certain effect |  |  |  | 
CCCCC/C=C/C(=O)CCc1ccc(O)c(OC)c1 [6-Shogaol, 6-shogaol] |  | 11.42 ± 2.69 | 8.67 ± 0.84 | 6.11 ± 2.41 | 5.89 ± 3.38 |  | a certain effect | 60.42 ± 6.14 | 56.75 ± 6.97 | 41.41 ± 2.75 | IC50 [1]: 3.23 ± 0.42 µM
C[C@@H]1C[C@H]2[C@@H]3CCC4=CC(=O)C=C[C@]4(C)[C@@]3(F)[C@@H](O)C[C@]2(C)[C@@]1(O)C(=O)CO [Dexamethasone, dexamethasone] |  |  |  |  |  |  |  |  |  |  | BALF Leukocytes (ALI mice induced by LPS [2]; 24 h after LPS): 18.760 ± 7.468 ×10^5 cells/mL; BALF Protein Concentration (ALI mice induced by LPS [2]; 24 h after LPS): 0.814 ± 0.183 mg/mL; Lung Index (BW) (ALI mice induced by LPS [2]; lung tissue weight/body weight, 24 h after LPS 1 mg/kg intranasal, 0.5 h after LPS): 0.816 ± 0.089; Wet-to-Dry Weight Ratio (W/D) (ALI mice induced by LPS [2]; right lung lobes, 24 h after LPS): 4.701 ± 0.221; IL-1β in BALF (ALI mice induced by LPS [3]; ALI mice, 24 h after LPS): 186.475 ± 76.810 pg/mL; IL-6 in BALF (ALI mice induced by LPS [3]; ALI mice, 24 h after LPS): 819.19 ± 506.63 pg/mL; TNF-α in BALF (ALI mice induced by LPS [3]; ALI mice, 24 h after LPS): 345.080 ± 239.594 pg/mL; Pathological Score (ALI mice induced by LPS [3]; lung tissue, HE staining): 6.70 ± 2.50
CC1(C)[C@@H](O[C@H]2O[C@H](C(=O)O)[C@@H](O)[C@H](O)[C@H]2O[C@@H]2O[C@H](C(=O)O)[C@@H](O)[C@H](O)[C@H]2O)CC[C@]2(C)[C@H]3C(=O)C=C4[C@@H]5C[C@@](C)(C(=O)O)CC[C@]5(C)CC[C@@]4(C)[C@]3(C)CC[C@@H]12 [Glycyrrhizic Acid, glycyrrhizic acid] | 105.02 ± 8.02 | 80.67 ± 4.74 | 71.04 ± 3.50 | 55.35 ± 3.98 | 43.54 ± 6.10 | 78.8 ± 11.9 | a certain effect | 88.06 ± 5.38 | 86.28 ± 2.29 | 81.79 ± 5.81 | 
